The source of these data is article PMC12668310, “High‐Throughput Synthesis and Screening of a Cyanimide Library Identifies Selective Inhibitors of ISG15‐Specific Protease mUSP18” (Angewandte Chemie (International Ed. in English), 2025).

Like-named read-outs stand apart in the source and are kept apart here.

The target of this assay is T1, mUSP18 (Mus musculus, UniProt Q9WTV6).
T1 construct: (46-368); His-tag (N); made in house
T1 sequence (Q9WTV6 46-368): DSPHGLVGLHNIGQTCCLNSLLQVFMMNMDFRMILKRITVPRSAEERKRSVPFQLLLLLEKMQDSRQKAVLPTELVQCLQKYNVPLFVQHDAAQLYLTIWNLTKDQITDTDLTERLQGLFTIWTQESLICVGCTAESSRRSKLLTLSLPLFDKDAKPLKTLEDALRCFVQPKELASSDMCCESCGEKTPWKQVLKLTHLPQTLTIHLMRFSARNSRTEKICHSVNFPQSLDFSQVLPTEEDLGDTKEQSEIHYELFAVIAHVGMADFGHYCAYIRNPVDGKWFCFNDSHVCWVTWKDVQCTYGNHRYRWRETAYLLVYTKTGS
Briefly: High-throughput screening, ISG15ct-RhoMP, single dose 1.25 µM. The class given is biochemical, murine. The following applies: mUSP18 %inhibition.

Setting [1] is: carboxylic acid (CA) building block alone, read-out: %inh CA only.
[2] abbreviates: carboxylic acid (CA) with coupling reagents DIC/HOBT, read-out: %inh CA + DIC/HOBT.

In the case of `CC1CCN(c2ncc(C(=O)O)s2)CC1` [CA172], the inhibition at 1.25 µM under setting [1] worked out at 9.83% and the inhibition at 1.25 µM under setting [2] was determined as 13.4%.
The like results for `O=C(O)C1CCN(c2ccc(=O)[nH]n2)CC1` [CA173] were, in that order, 8.54% and 5.44%.
The like results for `O=C(O)c1cnn(CC2CCCCO2)c1` (centres unmarked) [CA174] were, in that order, 2.59% and 8.37%.
For `Cc1cc(C(=O)O)c(C2CC2)s1` [CA175], the inhibition at 1.25 µM under setting [1] was determined as 1.19% and the inhibition at 1.25 µM under setting [2] was 12.1%.
The like results for `O=C(O)c1ccc(-n2ccnc2)nn1` [CA176] were, in that order, 15.3% and 5.42%.
The like results for `O=C(O)c1c(-c2ccccc2)noc1C(F)F` [CA177] were, in that order, 4.94% and 4.56%.
As for `O=C(O)C1(c2ccccc2Cl)CCOCC1` [CA178], the inhibition at 1.25 µM reads like this: under setting [1], 4.04%; under setting [2], 11.9%.
The like results for `Cc1noc(C)c1Cc1ccc(C(=O)O)o1` [CA179] were, in that order, 2.24% and 4.32%.
The like results for `Cc1cc(NS(=O)(=O)c2cccc(C(=O)O)c2)no1` [CA180] were, in that order, 2.04% and 3.97%.
The like results for `CN1CCN(C(=O)C2CC=CCC2C(=O)O)CC1` (centres unmarked) [CA181] were, in that order, 2.59% and 16.4%.
Regarding `O=C(O)c1ccc(S(=O)(=O)N2CCOCC2)cc1` [CA182], the inhibition at 1.25 µM turned out to be 2.85% under setting [1] and 2.77% under setting [2].
The like results for `O=C(O)Cc1csc(-n2cccc2)n1` [CA183] were, in that order, 4.52% and 3.13%.
The like results for `Cc1cc(-c2nc(C)sc2CC(=O)O)c(C)s1` [CA184] were, in that order, 3.02% and 10.3%.
The like results for `O=C(O)C1CC(=O)N(CCOc2ccccc2Cl)C1` (centres unmarked) [CA185] were, in that order, 3.64% and 9.2%.
For the molecule `O=C(O)c1ccc(-n2ncc(Cl)c(Cl)c2=O)cc1` [CA186], the inhibition at 1.25 µM under setting [1] was 20.6% and the inhibition at 1.25 µM under setting [2] is 9.85%.
The like results for `O=C(O)c1ccc(CN2CCOCC2)cc1` [CA187] were, in that order, 12.1% and -2.66%.
The like results for `O=C(O)c1cnc(-c2ccco2)s1` [CA188] were, in that order, 10.2% and -0.34%.
Turning to `O=C(O)Cc1csc(-c2cccs2)n1` [CA189], the inhibition at 1.25 µM runs as follows: under setting [1], 4.78%; under setting [2], -9.04%.
The like results for `O=C(O)c1csc(-c2ccccn2)n1` [CA190] were, in that order, 9.48% and 6.54%.
Regarding `Cc1noc(C)c1COc1ccc(CC(=O)O)cc1` [CA191], the inhibition at 1.25 µM by setting is: under setting [1], 4.33%; under setting [2], 1.25%.
The like results for `O=C(O)c1cnc(-c2cccs2)s1` [CA192] were, in that order, 11.7% and 0.91%.
The like results for `O=C(O)CC1=NN(c2ncc(C(F)(F)F)cc2Cl)C(=O)C1` [CA193] were, in that order, 5.93% and 4.27%.
The like results for `O=C(O)c1cccc(COc2cccc(F)c2)c1` [CA194] were, in that order, 9.72% and 3.17%.
For `O=C(O)c1occc1COc1ccccc1` [CA195], the inhibition at 1.25 µM is, setting by setting: under setting [1], 11%; under setting [2], 6.35%.
The like results for `Cc1nc(-c2cnn(C)c2)sc1C(=O)O` [CA196] were, in that order, 6.54% and 3.44%.
The like results for `O=C(O)C1CCN(C(=O)CCOc2ccccc2)CC1` [CA197] were, in that order, 4.78% and 1.19%.
In the case of `Cn1cc(S(=O)(=O)N2CCCC(C(=O)O)C2)cn1` (centres unmarked) [CA198], the inhibition at 1.25 µM by setting is: under setting [1], 0.78%; under setting [2], 2.3%.
The like results for `O=C(O)c1cc(S(=O)(=O)N2CCOCC2)c[nH]1` [CA199] were, in that order, 1.4% and 2.51%.
